In the experiment the test system is rat primary hippocampal neurons injured with Aβ 1-42. Put plainly: Number of synapses (PSD95/SYN overlap) in primary hippocampal neurons injured with Aβ1-42. It counts as cell-based. To be noted: for Number of synapses (% of control): Aβ 1-42 (20 μM) in Table 5, 24 h; for number of synapses normalized by the number of neurons (formation of new synapses): Aβ 1-42 injured hippocampal neurons. As for the experimental part:
The hippocampal neurons were exposed with Aβ solutions (see below) after 17 days of culture. The Aβ1-42 preparation was done following the procedure described by Callizot et al. (2013) J. Neurosci. Res. 91706-716. Briefly, Aβ1-42 peptide was dissolved in the defined culture medium mentioned above, at an initial concentration of 40 μM. This solution was gently agitated for 3 days at 37° C. in the dark and immediately used after being properly diluted in culture medium to the concentrations used (20 μM (plate 1) or 2.5 μM (plate 2) corresponding to 2 μM or 0.25 μM of oligomers (AβO) respectively).
Donecopride fumarate was solved in culture medium and preincubated 1 h before Aβ application. Aβ1-42 preparation was added to a final concentration of 20 or 2.5 μM (=2 μM or 0.25 μM of AβO, evaluated by automatic Western Blot) diluted in control medium in presence of Donecopride.
24 hours after intoxication, the hippocampal neurons were fixed by a cold solution of ethanol (95%) and acetic acid (5%) for 5 min at −20° C. After permeabilization with 0.1% of saponin, cells were incubated for 2 h with:
a) mouse monoclonal antibody anti post synaptic density 95 kDa (PSD95) at a dilution of 1/100 in PBS containing 1% fetal calf serum and 0.1% of saponin.
b) Rabbit polyclonal antibody anti-synaptophysin (SYN) at the dilution of 1/100 in PBS containing 1% fetal calf serum and 0.1% of saponin.
For each condition, 40 pictures per well were taken using ImageXpress (Molecular Devices) with 40× magnification. All images were taken with the same acquisition parameters.
Synapses evaluation was performed automatically by using Custom module editor (Molecular Devices).
The following endpoints were assessed: • Total number of synapses (overlapping between PSD95/SYN).
To assess the formation of synapses, the distribution of PSD-95, a post-synaptic marker, and synaptophysin, a pre-synaptic marker, was studied. A structure positive for both PD-95 and synaptophysin staining was considered as a synapse.
Injury: The hippocampal neurons were exposed with Aβ solutions (see below) after 17 days of culture. The Aβ1-42 preparation was done following the procedure described by Callizot et al. (2013) J. Neurosci. Res. 91:706-716. The batch number of the Aβ1-42 used in this study contains 10% of oligomers (quantification by WB as performed in Combes et al. (2015) J. Neurosci. Res. 93:633-643). Briefly, Aβ1-42 peptide was dissolved in the defined culture medium mentioned above, at an initial concentration of 40 μmol/1. This solution was gently agitated for 3 days at 37° C. in the dark and immediately used after being properly diluted in culture medium to the concentrations used (20 μmol/l or 2.5 μmol/l corresponding to 2 μmol/l or 0.25 μmol/l of oligomers (AβO) respectively). Aβ1-42 preparation was added to a final concentration of 20 or 2.5 μmol/l (respectively 2 μmol/l or 0.25 μmol/l of AβO, determined by automatic WB) diluted in control medium in presence of the compounds.
Immunostaining: PSD95 and SYN—After fixation and permeabilization, cells were incubated for 2 hours with: • mouse monoclonal antibody anti post synaptic density 95 kDa (PSD95) at dilution of 1/200 in PBS containing 1% fetal calf serum and 0.1% saponin; • rabbit polyclonal antibody anti-synaptophysin (SYN) at the dilution of 1/100 in PBS containing 1% fetal calf serum and 0.1% saponin.
For each condition, 40 pictures per well were taken using ImageXpress (Molecular Devices) with 40× magnification. All images were taken with the same conditions. Synapses evaluation were performed automatically by using Custom Module Editor® (Molecular Devices). The following endpoints were assessed: • Number of synapses (overlapping between PSD95/SYN)

Structures are written as SMILES. Marks after values point to notes of the source that are not given here.

For `COc1cc2c(cc1OC)C(=O)C(CC1CCN(Cc3ccccc3)CC1)C2` (centres unmarked) [Donepezil, reference compound], the “Number of synapses (% of control)” value (1 μM) was 88* % of control. In addition, the “number of synapses normalized by the number of neurons (formation of new synapses)” value (Donepezil group (1 μM)) is “no effect”.

Consider `COc1cc(N)c(Cl)cc1C(=O)CCC1CCN(CC2CCCCC2)CC1` [Donecopride], for which the “Number of synapses (% of control)” value runs as follows: (1 nM) 69 % of control; (5 nM) 83* % of control; (10 nM) 87* % of control; (50 nM) 91* % of control; (100 nM) 93* % of control; (500 nM) 94* % of control. Besides, the “Number of synapses (% of control)” value (1 μM) is 85* % of control. In addition, for the setting “500 nM”, the “number of synapses normalized by the number of neurons (formation of new synapses)” value is “significantly promoted the formation of new synapses”.

Turning to `COc1cc(N)c(F)cc1C(=O)CCC1CCN(CC2CCCCCC2)CC1` [MR36014], under “Aβ1-42 injured hippocampal neurons, Example 5 (FIG. 12)”, the “concentration up to which the effect on synapses is significant” value was at most 50 µM.

The record behind these values is patent US20220031680A1, “Donecopride As Neuroprotective Agent In the Treatment of Neurodegenerative Diseases” (priority 2018, published 2022).
